ChEMBL document CHEMBL1201862, “PubChem BioAssay data set” (2004)
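1) Cells in 96-well plates. 2) Compound, 48 h, 5 concentrations. 3) Linear interpolation between surrounding doses. 4) Unreached endpoint = highest concentration. The concentration for 50% growth inhibition is given as GI50.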 Active and inactive are the calls of the source. Rule as the data show it: active = GI50 up to about 1.1 µM and inactive = higher.

Tests used:
Assay in all cases: growth of human tumour cells (NCI), 48 h
CAKI-1 = system: CAKI-1
Malme-3M = system: Malme-3M
SNB-78 = system: SNB-78
SK-MEL-28 = system: SK-MEL-28
UACC-62 = system: UACC-62
ACHN = system: ACHN
MOLT-4 = system: MOLT-4
EKVX = system: EKVX
OVCAR-3 = system: OVCAR-3
SNB-75 = system: SNB-75
RPMI-8226 = system: RPMI-8226
NCI-H23 = system: NCI-H23
XF498 = system: XF498
SF-268 = system: SF-268
K562 = system: K562
U-251 = system: U-251
SW-620 = system: SW-620
OVCAR-8 = system: OVCAR-8
SN12C = system: SN12C
COLO 205 = system: COLO 205
HL-60 = system: HL-60
DLD-1 = system: DLD-1
OVCAR-5 = system: OVCAR-5
NCI-H226 = system: NCI-H226
IGROV-1 = system: IGROV-1
DMS-114 = system: DMS-114
SNB-19 = system: SNB-19
A498 = system: A498
A549 = system: A549
UO-31 = system: UO-31
SK-MEL-2 = system: SK-MEL-2
KM12 = system: KM12
HT-29 = system: HT-29
HCT-116 = system: HCT-116
HOP-92 = system: HOP-92
NCI-H460 = system: NCI-H460
786-0 = system: 786-0
SF-295 = system: SF-295
SK-OV-3 = system: SK-OV-3
UACC-257 = system: UACC-257
M14 = system: M14
M19-MEL = system: M19-MEL
TK-10 = system: TK-10
NCI-H522 = system: NCI-H522
CCRF-CEM = system: CCRF-CEM
LXFL 529 = system: LXFL 529
HOP-62 = system: HOP-62
SR = system: SR
OVCAR-4 = system: OVCAR-4
HCC 2998 = system: HCC 2998
RXF 393 = system: RXF 393
SK-MEL-5 = system: SK-MEL-5
SF-539 = system: SF-539
KM-20L2 = system: KM-20L2
HCT-15 = system: HCT-15
LOX IMVI = system: LOX IMVI
DMS-273 = system: DMS-273

Measured: GI50

O=C1OCCC1C(O)C1c2ccccc2-c2ccccc21 (stereo not given)
inactive: CAKI-1 > 100 µM | Malme-3M > 100 µM | SNB-78 > 100 µM | SK-MEL-28 > 100 µM | UACC-62 > 100 µM | ACHN > 100 µM | MOLT-4 > 100 µM | EKVX > 100 µM | OVCAR-3 > 100 µM | SNB-75 > 100 µM | RPMI-8226 > 100 µM | NCI-H23 > 100 µM | XF498 17.8 µM | SF-268 > 100 µM | K562 > 100 µM | U-251 > 100 µM | SW-620 > 100 µM | OVCAR-8 > 100 µM | SN12C > 100 µM | COLO 205 > 100 µM | HL-60 > 100 µM | DLD-1 > 100 µM | OVCAR-5 > 100 µM | NCI-H226 > 100 µM | IGROV-1 > 100 µM | DMS-114 > 100 µM | SNB-19 > 100 µM | A498 > 100 µM | A549 > 100 µM | UO-31 > 100 µM | SK-MEL-2 > 100 µM | KM12 > 100 µM | HT-29 > 100 µM | HCT-116 > 100 µM | HOP-92 > 100 µM | NCI-H460 > 100 µM | 786-0 > 100 µM | SF-295 > 100 µM | SK-OV-3 > 100 µM | UACC-257 > 100 µM | M14 > 100 µM | M19-MEL > 100 µM | TK-10 > 100 µM | NCI-H522 > 100 µM | CCRF-CEM > 100 µM | LXFL 529 > 100 µM | HOP-62 > 100 µM | SR > 100 µM | OVCAR-4 > 100 µM

C/N=c1/ssc(=S)n1C(C)C
active: SNB-75 1.11 µM | CCRF-CEM 0.673 µM
inactive: HCC 2998 13.9 µM | CAKI-1 21.7 µM | SK-MEL-28 1.4 µM | UACC-62 12 µM | ACHN 20.8 µM | RXF 393 7.5 µM | SK-MEL-5 19.8 µM | MOLT-4 10.8 µM | EKVX 57.8 µM | OVCAR-3 12.4 µM | RPMI-8226 11.6 µM | NCI-H23 12.2 µM | SF-268 33.8 µM | K562 3.06 µM | SW-620 4.24 µM | OVCAR-8 25.6 µM | COLO 205 16.1 µM | HL-60 2.3 µM | NCI-H226 56.2 µM | IGROV-1 17.5 µM | DMS-114 3.13 µM | SNB-19 > 100 µM | A549 25.6 µM | UO-31 37.7 µM | SK-MEL-2 42 µM | KM12 25.2 µM | HT-29 3.3 µM | SF-539 25.8 µM | HCT-116 19.7 µM | HOP-92 14.3 µM | NCI-H460 24.2 µM | SF-295 33.9 µM | UACC-257 14.5 µM | M14 12.8 µM | M19-MEL 13.7 µM | TK-10 44.6 µM | LXFL 529 4.18 µM | HOP-62 18.9 µM | KM-20L2 16.7 µM

CNC(=O)N(CCCC(NC(C)=O)C(=O)NCc1ccccc1)Cc1ccccc1 (stereo not given)
inactive: HCC 2998 > 100 µM | CAKI-1 > 100 µM | Malme-3M > 100 µM | SNB-78 > 100 µM | SK-MEL-28 > 100 µM | UACC-62 > 100 µM | ACHN > 100 µM | RXF 393 > 100 µM | SK-MEL-5 > 100 µM | MOLT-4 > 100 µM | EKVX > 100 µM | OVCAR-3 > 100 µM | SNB-75 28.6 µM | RPMI-8226 > 100 µM | NCI-H23 > 100 µM | XF498 > 100 µM | SF-268 > 100 µM | K562 > 100 µM | U-251 > 100 µM | SW-620 > 100 µM | OVCAR-8 > 100 µM | SN12C > 100 µM | COLO 205 > 100 µM | DLD-1 > 100 µM | OVCAR-5 > 100 µM | NCI-H226 > 100 µM | IGROV-1 > 100 µM | DMS-114 > 100 µM | SNB-19 > 100 µM | A498 > 100 µM | A549 > 100 µM | LOX IMVI > 100 µM | UO-31 > 100 µM | SK-MEL-2 > 100 µM | KM12 > 100 µM | HT-29 > 100 µM | SF-539 > 100 µM | HCT-116 > 100 µM | HOP-92 > 100 µM | NCI-H460 > 100 µM | 786-0 > 100 µM | SF-295 > 100 µM | SK-OV-3 > 100 µM | UACC-257 > 100 µM | M14 > 100 µM | M19-MEL > 100 µM | TK-10 > 100 µM | NCI-H522 > 100 µM | CCRF-CEM > 100 µM | LXFL 529 > 100 µM | HOP-62 > 100 µM | DMS-273 > 100 µM | OVCAR-4 > 100 µM | KM-20L2 > 100 µM
> 100 µM: HCT-15
